ChEMBL document CHEMBL3797052 (Eur J Med Chem, 2016)

Test system: not listed separately
Experiment: Antiproliferative activity against human Hs 578T cells assessed as cell growth at 10^-5 M after 48 hrs by sulforhodamine B assay
Type: functional
Details: read-out: Activity

Structure (SMILES) | growth at 10 µM [%]
CNC(=O)c1cc(Oc2ccc3nc(NC(=O)c4ccc5c(c4)OCCO5)sc3c2)ccn1 | 112

Test system: not listed separately
Experiment: Antiproliferative activity against human SW620 cells assessed as cell growth at 10^-5 M after 48 hrs by sulforhodamine B assay
Type: functional
Details: SW-620, 48 h, read-out: Activity

Structure (SMILES) | growth at 10 µM [%]
CNC(=O)c1cc(Oc2ccc3nc(NC(=O)c4ccc5c(c4)OCCO5)sc3c2)ccn1 | 107

Test system: not listed separately
Experiment: Antiproliferative activity against human HL-60(TB) cells assessed as cell growth at 10^-5 M after 48 hrs by sulforhodamine B assay
Type: functional
Details: HL-60, 48 h, read-out: Activity

Structure (SMILES) | growth at 10 µM [%]
CNC(=O)c1cc(Oc2ccc3nc(NC(=O)c4ccc5c(c4)OCCO5)sc3c2)ccn1 | 93.7

Test system: not listed separately
Experiment: Antiproliferative activity against human BT549 cells assessed as cell growth at 10^-5 M after 48 hrs by sulforhodamine B assay
Type: functional
Details: BT-549, 48 h, read-out: Activity

Structure (SMILES) | growth at 10 µM [%]
CNC(=O)c1cc(Oc2ccc3nc(NC(=O)c4ccc5c(c4)OCCO5)sc3c2)ccn1 | 89.8

Test system: not listed separately
Experiment: Cytotoxicity against human SKBR3 cells assessed as growth inhibition at 10 uM after 2 days by MTT assay
Type: functional
Details: SK-BR-3, 48 h, read-out: GI

Structure (SMILES) | inhibition of growth at 10 µM [%]
CNC(=O)c1cc(Oc2ccc3nc(NC(=O)c4ccc5c(c4)OCCO5)sc3c2)ccn1 | 50.7

Test system: MDA-MB-435
Experiment: Antiproliferative activity against human MDA-MB-435 cells assessed as cell growth at 10^-5 M after 48 hrs by sulforhodamine B assay
Type: functional
Details: MDA-MB-435, 48 h, read-out: Activity

Structure (SMILES) | growth at 10 µM [%]
CNC(=O)c1cc(Oc2ccc3nc(NC(=O)c4ccc5c(c4)OCCO5)sc3c2)ccn1 | 98.5

Test system: not listed separately
Experiment: Antiproliferative activity against human UACC62 cells assessed as cell growth at 10^-5 M after 48 hrs by sulforhodamine B assay
Type: functional
Details: UACC-62, 48 h, read-out: Activity

Structure (SMILES) | growth at 10 µM [%]
CNC(=O)c1cc(Oc2ccc3nc(NC(=O)c4ccc5c(c4)OCCO5)sc3c2)ccn1 | 102

Test system: not listed separately
Experiment: Antiproliferative activity against human LOXIMVI cells assessed as cell growth at 10^-5 M after 48 hrs by sulforhodamine B assay
Type: functional
Details: LOX IMVI, read-out: Activity

Structure (SMILES) | growth at 10 µM [%]
CNC(=O)c1cc(Oc2ccc3nc(NC(=O)c4ccc5c(c4)OCCO5)sc3c2)ccn1 | 97.8

Test system: not listed separately
Experiment: Antiproliferative activity against human HCT116 cells assessed as cell growth at 10^-5 M after 48 hrs by sulforhodamine B assay
Type: functional
Details: HCT-116, 48 h, read-out: Activity

Structure (SMILES) | growth at 10 µM [%]
CNC(=O)c1cc(Oc2ccc3nc(NC(=O)c4ccc5c(c4)OCCO5)sc3c2)ccn1 | 89.6

Test system: not listed separately
Experiment: Antiproliferative activity against human Caki1 cells assessed as cell growth at 10^-5 M after 48 hrs by sulforhodamine B assay
Type: functional
Details: CAKI-1, 48 h, read-out: Activity

Structure (SMILES) | growth at 10 µM [%]
CNC(=O)c1cc(Oc2ccc3nc(NC(=O)c4ccc5c(c4)OCCO5)sc3c2)ccn1 | 97.7

Test system: HT-29
Experiment: Antiproliferative activity against human HT-29 cells assessed as cell growth at 10^-5 M after 48 hrs by sulforhodamine B assay
Type: functional
Details: HT-29, 48 h, read-out: Activity

Structure (SMILES) | growth at 10 µM [%]
CNC(=O)c1cc(Oc2ccc3nc(NC(=O)c4ccc5c(c4)OCCO5)sc3c2)ccn1 | 71.3

Test system: not listed separately
Experiment: Cytotoxicity against human SKBR3 cells assessed as growth inhibition at 100 uM after 2 days by MTT assay
Type: functional
Details: SK-BR-3, 48 h, read-out: GI

Structure (SMILES) | inhibition of growth at 100 µM [%]
CNC(=O)c1cc(Oc2ccc3nc(NC(=O)c4ccc5c(c4)OCCO5)sc3c2)ccn1 | 62.3

Test system: not listed separately
Experiment: Cytotoxicity against human HCT116 cells assessed as growth inhibition at 100 uM after 2 days by MTT assay
Type: functional
Details: HCT-116, 48 h, read-out: GI

Structure (SMILES) | inhibition of growth at 100 µM [%]
CNC(=O)c1cc(Oc2ccc3nc(NC(=O)c4ccc5c(c4)OCCO5)sc3c2)ccn1 | 49.9

Test system: A498
Experiment: Antiproliferative activity against human A498 cells assessed as cell growth at 10^-5 M after 48 hrs by sulforhodamine B assay
Type: functional
Details: A498, 48 h, read-out: Activity

Structure (SMILES) | growth at 10 µM [%]
CNC(=O)c1cc(Oc2ccc3nc(NC(=O)c4ccc5c(c4)OCCO5)sc3c2)ccn1 | 95.1

Test system: not listed separately
Experiment: Antiproliferative activity against human COLO205 cells assessed as cell growth at 10^-5 M after 48 hrs by sulforhodamine B assay
Type: functional
Details: COLO 205, 48 h, read-out: Activity

Structure (SMILES) | growth at 10 µM [%]
CNC(=O)c1cc(Oc2ccc3nc(NC(=O)c4ccc5c(c4)OCCO5)sc3c2)ccn1 | 103

Test system: T47D
Experiment: Antiproliferative activity against human T47D cells assessed as cell growth at 10^-5 M after 48 hrs by sulforhodamine B assay
Type: functional
Details: read-out: Activity

Structure (SMILES) | growth at 10 µM [%]
CNC(=O)c1cc(Oc2ccc3nc(NC(=O)c4ccc5c(c4)OCCO5)sc3c2)ccn1 | 92.1

Test system: not listed separately
Experiment: Antiproliferative activity against human SF539 cells assessed as cell growth at 10^-5 M after 48 hrs by sulforhodamine B assay
Type: functional
Details: SF-539, 48 h, read-out: Activity

Structure (SMILES) | growth at 10 µM [%]
CNC(=O)c1cc(Oc2ccc3nc(NC(=O)c4ccc5c(c4)OCCO5)sc3c2)ccn1 | 100

Test system: Malme-3M
Experiment: Antiproliferative activity against human MALME-3M cells assessed as cell growth at 10^-5 M after 48 hrs by sulforhodamine B assay
Type: functional
Details: read-out: Activity

Structure (SMILES) | growth at 10 µM [%]
CNC(=O)c1cc(Oc2ccc3nc(NC(=O)c4ccc5c(c4)OCCO5)sc3c2)ccn1 | 92.5

Test system: not listed separately
Experiment: Antiproliferative activity against human SF268 cells assessed as cell growth at 10^-5 M after 48 hrs by sulforhodamine B assay
Type: functional
Details: SF-268, 48 h, read-out: Activity

Structure (SMILES) | growth at 10 µM [%]
CNC(=O)c1cc(Oc2ccc3nc(NC(=O)c4ccc5c(c4)OCCO5)sc3c2)ccn1 | 96.6

Test system: KM12
Experiment: Antiproliferative activity against human KM12 cells assessed as cell growth at 10^-5 M after 48 hrs by sulforhodamine B assay
Type: functional
Details: KM12, 48 h, read-out: Activity

Structure (SMILES) | growth at 10 µM [%]
CNC(=O)c1cc(Oc2ccc3nc(NC(=O)c4ccc5c(c4)OCCO5)sc3c2)ccn1 | 95.3

Test system: K562
Experiment: Antiproliferative activity against human K562 cells assessed as cell growth at 10^-5 M after 48 hrs by sulforhodamine B assay
Type: functional
Details: K562, 48 h, read-out: Activity

Structure (SMILES) | growth at 10 µM [%]
CNC(=O)c1cc(Oc2ccc3nc(NC(=O)c4ccc5c(c4)OCCO5)sc3c2)ccn1 | 91.2

Test system: not listed separately
Experiment: Antiproliferative activity against human OVCAR4 cells assessed as cell growth at 10^-5 M after 48 hrs by sulforhodamine B assay
Type: functional
Details: OVCAR-4, 48 h, read-out: Activity

Structure (SMILES) | growth at 10 µM [%]
CNC(=O)c1cc(Oc2ccc3nc(NC(=O)c4ccc5c(c4)OCCO5)sc3c2)ccn1 | 97.5

Test system: not listed separately
Experiment: Antiproliferative activity against human HCC2998 cells assessed as cell growth at 10^-5 M after 48 hrs by sulforhodamine B assay
Type: functional
Details: HCC 2998, 48 h, read-out: Activity

Structure (SMILES) | growth at 10 µM [%]
CNC(=O)c1cc(Oc2ccc3nc(NC(=O)c4ccc5c(c4)OCCO5)sc3c2)ccn1 | 103

Test system: not listed separately
Experiment: Antiproliferative activity against human DU145 cells assessed as cell growth at 10^-5 M after 48 hrs by sulforhodamine B assay
Type: functional
Details: DU-145, 48 h, read-out: Activity

Structure (SMILES) | growth at 10 µM [%]
CNC(=O)c1cc(Oc2ccc3nc(NC(=O)c4ccc5c(c4)OCCO5)sc3c2)ccn1 | 98.5

Test system: not listed separately
Experiment: Antiproliferative activity against human HCT15 cells assessed as cell growth at 10^-5 M after 48 hrs by sulforhodamine B assay
Type: functional
Details: HCT-15, 48 h, read-out: Activity

Structure (SMILES) | growth at 10 µM [%]
CNC(=O)c1cc(Oc2ccc3nc(NC(=O)c4ccc5c(c4)OCCO5)sc3c2)ccn1 | 105

Test system: not listed separately
Experiment: Cytotoxicity against human HCT116 cells assessed as growth inhibition at 10 uM after 2 days by MTT assay
Type: functional
Details: HCT-116, 48 h, read-out: GI

Structure (SMILES) | inhibition of growth at 10 µM [%]
CNC(=O)c1cc(Oc2ccc3nc(NC(=O)c4ccc5c(c4)OCCO5)sc3c2)ccn1 | 10.5

Test system: not listed separately
Experiment: Antiproliferative activity against human UO31 cells assessed as cell growth at 10^-5 M after 48 hrs by sulforhodamine B assay
Type: functional
Details: UO-31, 48 h, read-out: Activity

Structure (SMILES) | growth at 10 µM [%]
CNC(=O)c1cc(Oc2ccc3nc(NC(=O)c4ccc5c(c4)OCCO5)sc3c2)ccn1 | 94.7

Test system: NCI-H322M
Experiment: Antiproliferative activity against human NCI-H322M cells assessed as cell growth at 10^-5 M after 48 hrs by sulforhodamine B assay
Type: functional
Details: read-out: Activity

Structure (SMILES) | growth at 10 µM [%]
CNC(=O)c1cc(Oc2ccc3nc(NC(=O)c4ccc5c(c4)OCCO5)sc3c2)ccn1 | 99

Test system: SK-MEL-28
Experiment: Antiproliferative activity against human SK-MEL-28 cells assessed as cell growth at 10^-5 M after 48 hrs by sulforhodamine B assay
Type: functional
Details: SK-MEL-28, 48 h, read-out: Activity

Structure (SMILES) | growth at 10 µM [%]
CNC(=O)c1cc(Oc2ccc3nc(NC(=O)c4ccc5c(c4)OCCO5)sc3c2)ccn1 | 103

Test system: SK-MEL-2
Experiment: Antiproliferative activity against human SK-MEL-2 cells assessed as cell growth at 10^-5 M after 48 hrs by sulforhodamine B assay
Type: functional
Details: SK-MEL-2, 48 h, read-out: Activity

Structure (SMILES) | growth at 10 µM [%]
CNC(=O)c1cc(Oc2ccc3nc(NC(=O)c4ccc5c(c4)OCCO5)sc3c2)ccn1 | 113

Test system: not listed separately
Experiment: Antiproliferative activity against human SNB19 cells assessed as cell growth at 10^-5 M after 48 hrs by sulforhodamine B assay
Type: functional
Details: SNB-19, 48 h, read-out: Activity

Structure (SMILES) | growth at 10 µM [%]
CNC(=O)c1cc(Oc2ccc3nc(NC(=O)c4ccc5c(c4)OCCO5)sc3c2)ccn1 | 101

Test system: not listed separately
Experiment: Antiproliferative activity against human HOP92 cells assessed as cell growth at 10^-5 M after 48 hrs by sulforhodamine B assay
Type: functional
Details: HOP-92, 48 h, read-out: Activity

Structure (SMILES) | growth at 10 µM [%]
CNC(=O)c1cc(Oc2ccc3nc(NC(=O)c4ccc5c(c4)OCCO5)sc3c2)ccn1 | 93.5

Test system: not listed separately
Experiment: Antiproliferative activity against human HOP62 cells assessed as cell growth at 10^-5 M after 48 hrs by sulforhodamine B assay
Type: functional
Details: HOP-62, 48 h, read-out: Activity

Structure (SMILES) | growth at 10 µM [%]
CNC(=O)c1cc(Oc2ccc3nc(NC(=O)c4ccc5c(c4)OCCO5)sc3c2)ccn1 | 104

Test system: not listed separately
Experiment: Antiproliferative activity against human OVCAR8 cells assessed as cell growth at 10^-5 M after 48 hrs by sulforhodamine B assay
Type: functional
Details: OVCAR-8, 48 h, read-out: Activity

Structure (SMILES) | growth at 10 µM [%]
CNC(=O)c1cc(Oc2ccc3nc(NC(=O)c4ccc5c(c4)OCCO5)sc3c2)ccn1 | 100

Test system: not listed separately
Experiment: Antiproliferative activity against human RPMI8226 cells assessed as cell growth at 10^-5 M after 48 hrs by sulforhodamine B assay
Type: functional
Details: RPMI-8226, 48 h, read-out: Activity

Structure (SMILES) | growth at 10 µM [%]
CNC(=O)c1cc(Oc2ccc3nc(NC(=O)c4ccc5c(c4)OCCO5)sc3c2)ccn1 | 97.7

Test system: MDA-MB-468
Experiment: Antiproliferative activity against human MDA-MB-468 cells assessed as cell growth at 10^-5 M after 48 hrs by sulforhodamine B assay
Type: functional
Details: MDA-MB-468, 48 h, read-out: Activity

Structure (SMILES) | growth at 10 µM [%]
CNC(=O)c1cc(Oc2ccc3nc(NC(=O)c4ccc5c(c4)OCCO5)sc3c2)ccn1 | 108

Test system: NCI-H522
Experiment: Antiproliferative activity against human NCI-H522 cells assessed as cell growth at 10^-5 M after 48 hrs by sulforhodamine B assay
Type: functional
Details: NCI-H522, 48 h, read-out: Activity

Structure (SMILES) | growth at 10 µM [%]
CNC(=O)c1cc(Oc2ccc3nc(NC(=O)c4ccc5c(c4)OCCO5)sc3c2)ccn1 | 99.6
